Data from US20120276064A1, “METHODS AND COMPOSITIONS FOR REJUVENATION AND EXPANSION OF STEM CELLS” (priority 2011, published 2012).
Entries after “also recorded” stand apart in the source; their conditions may differ.

Columns and labels:
[1] = test system: tibialis anterior muscle of notexin-injured old mice; assay: In vivo force measurements after transplantation of cultured old MuSC progeny; design: species or system mouse; settings: injured old muscles transplanted with progeny of SB-treated old MuSCs; two months post-injury
[2] = test system: myogenin protein expression in young MuSCs; assay: Myogenin immunofluorescence analysis of hydrogel-cultured MuSCs; type: cell-based, mouse; settings: soft hydrogel, 10 μM, one week, compared to control
Method: Myogenin immunofluorescence analysis. MuSCs from young mice were isolated and cultured on 12 kPa hydrogels with either 0.1% DMSO control or 10 μM SB202190. After one week of culture, cells were fixed with 0.5% paraformaldehyde in PBS. Fixed cells were blocked with 20% goat serum and 0.5% Triton X100 in PBS. Cells were stained with anti-myogenin antibody (Santa Cruz Biotechnology, Santa Cruz, Calif.) and then an AlexaFluor594-conjugated secondary antibody (Invitrogen). Nuclei were stained with Topro3 (Invitrogen)the Immunofluorescence images were acquired using a LSM510 laser-scanning confocal microscope (Carl Zeiss Microimaging) with a Plan NeoFluar 20x/0.75NA objective. Digital images were captured using LSM510 software. Images were composed and edited in Photoshop software (Adobe). Background was reduced and contrast was enhanced equivalently across all images of the same stain. Nuclear regions were identified by Topro3 staining using MetaMorph software (Molecular Devices, Sunnyvale, Calif.). Within each nuclear region, the myogenin intensity was integrated using MetaMorph software. Nuclear myogenin intensities from each condition were plotted in a log-scale histogram to establish a threshold defining myogenin-positive cells.

[3] = test system: MuSCs transplanted into tibialis anterior muscle; assay: Transplantation of cultured MuSCs into irradiated NOD/SCID mice, engraftment by bioluminescence imaging; type: in vivo, mouse; settings: for Improvement of transplantation function of MuSCs cultured on rigid hydrogels: young and old MuSCs, rigid (~10^6 kPa) hydrogel, 10 μM, one week, 100 cells transplanted
Method: MuSC transplantation. MuSCs were transplanted immediately following FACS isolation or after collection from cell culture directly into the tibialis anterior muscle of recipient mice as previously described. Cells from GFP/Luciferase or Myf5^nLacZl+/Luciferase mice were transplanted into gender-matched, hindlimb-irradiated NOD/SCID (Jackson) mice. NOD/SCID (2-4 months of age, median 2 months) mice were anesthetized with ketamine (2.4 mg per mouse) and xylazine (240 μg per mouse) by intraperitoneal injection then were irradiated by a single dose of 18 Gy administered to the hindlimbs, with the rest of the body shielded in a lead jig. Transplantation was performed within three days post-irradiation. In syngeneic transplant studies, cells from old C57BL/6 mice were transplanted into gender-matched, littermate old C57BL/6 mice (Jackson) following culture for one week on soft hydrogels. Specifically, old C57BL/6 MuSCs were infected with a GFP/Luciferase lentivirus added at day 2 of culture for 24 hours. Recipient old C57BL/6 mice were acutely injured by a single 10 μl intramuscular injection of notexin (10 μg/ml; Latoxan, France) two days prior to cell transplantation, but were not irradiated. Freshly isolated or cultured cells were counted by hemocytometer and resuspended at desired cell concentrations in PBS with 2.5% goat serum and 1 mM EDTA. Cells were collected from hydrogel cultures by incubation with 0.5% trypsin in PBS for 2 min at 37° C. and counted using a hemocytometer. Cells were transplanted by intramuscular injection into the tibialis anterior muscle in a 10 μl volume.
Tissue histology. Recipient tibialis anterior muscle tissues were prepared for histology as previously described to analyze GFP expression. Transverse sections were incubated with anti-laminin (Millipore, Billerica, Calif.), anti-GFP (Invitrogen) antibodies, and/or anti-β-galactosidase (Abcam, Cambridge, Mass.) with appropriate secondary antibodies (Invitrogen). Nuclei were counter-stained with Hoechst 33342 (Invitrogen). Images were acquired with an AxioPlan2 epi-fluorescent microscope (Carl Zeiss Microimaging, Thornwood, N.Y.) with Plan NeoFluar 10×/0.30NA or 20×/0.75NA objectives (Carl Zeiss) and an ORCA-ER digital camera (Hamamatsu Photonics, Bridgewater, N.J.). Digital images were captured in OpenLab software (Improvision, Waltham, Mass.) and assembled in Photoshop software (Adobe, San Jose, Calif.) with consistent contrast adjustments across all images from the same stain.
Bioluminescence imaging. Bioluminescence imaging was performed using a Xenogen-100 system, as previously described. Briefly, mice were anesthetized under isofluorane and 100 μL luciferin (0.1 mmol/kg; Caliper LifeSciences, Hopkinton, Mass.) in PBS was administered by intraperitoneal injection. Following luciferin administration, images were acquired every minute for 15 min. Images acquired at 12 min post-luciferin injection were used for analysis. Digital images were recorded and analyzed using Living Image software (Caliper LifeSciences). Images were analyzed with a consistent region-of-interest (ROI) placed over each hindlimb to calculate a bioluminescence signal. A bioluminescence signal value of 80,000 photons/s was used to define a engraftment threshold, as this level corresponds to the histological detection of one or more GFP^+ myofiber (see FIG. 8A). BLI imaging was performed one month post-transplant unless otherwise stated.
MuSC culture and treatment. Following isolation, MuSCs were pelleted and resuspended into myogenic cell culture medium containing DMEM/F10 (50:50), 15% FBS, 2.5 ng/ml bFGF, and 1% penicillin/streptomycin. MuSCs were seeded at 1000 cells per well (24-well plate size wells, 2.0 cm^2 surface area) on laminin-tethered hydrogels of either 12 kPa (soft) or ˜10^6 kPa (rigid) rigidities. Cells were maintained at 37° C. in 5% CO2. Media was changed daily. […]

## Oc1ccc(-c2nc(-c3ccncc3)c(-c3ccc(F)cc3)[nH]2)cc1 [SB202190]
[1]
  Specific tetanus force versus pre-injury levels: restored
  Specific twitch force versus pre-injury levels: exceeded
[2]
  Percentage of myogenin+ cells: greatly diminished
[3]; old MuSCs cultured one week on soft hydrogel with 10 μM, one month post-transplant
  Engraftment frequency for 100-cell transplants: 41%
[3]; old MuSCs one week on soft hydrogels + SB (~300 cells), one month post-transplant
  Transplant engraftment frequency of the progeny of 10 old MuSCs: 79%
[3]; progeny of 10 old MuSCs after one week on soft hydrogels + SB, listed as SB
  Extent of engraftment (BLI and histology) compared to freshly isolated MuSCs: not as robust; also recorded: slightly reduced regenerative extent
[3]; young MuSCs cultured one week on soft hydrogel with 10 μM, one month post-transplant
  Engraftment frequency for 100-cell transplants: 45%
[3]
  Improvement of transplantation function of MuSCs cultured on rigid hydrogels: does not support significant improvement
[3]; listed as SB
  Improvement of transplantation function of MuSCs cultured on rigid hydrogels: did not support a similar SB-mediated improvement
